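Protocol summary: plate cells (96-well), add compound at 5 concentrations, incubate 48 h, interpolate endpoints linearly. The concentration for 50% growth inhibition is given as GI50. At the TGI there is no net growth.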
Legend:
Assay in all cases: NCI tumour cell line growth inhibition, 48 h
786-0 renal = system: 786-0 renal
A498 renal = system: A498 renal
A549 NSCLC = system: A549 NSCLC
ACHN renal = system: ACHN renal
CAKI-1 renal = system: CAKI-1 renal
CCRF-CEM leukemia = system: CCRF-CEM leukemia
COLO 205 colon = system: COLO 205 colon
DLD-1 colon = system: DLD-1 colon
DMS 114 small cell lung = system: DMS 114 small cell lung
DMS 273 small cell lung = system: DMS 273 small cell lung
EKVX NSCLC = system: EKVX NSCLC
HCC-2998 colon = system: HCC-2998 colon
HCT-15 colon = system: HCT-15 colon
HL-60(TB) leukemia = system: HL-60(TB) leukemia
HOP-62 NSCLC = system: HOP-62 NSCLC
HOP-92 NSCLC = system: HOP-92 NSCLC
HT29 colon = system: HT29 colon
IGROV1 ovarian = system: IGROV1 ovarian
K-562 leukemia = system: K-562 leukemia
KM12 colon = system: KM12 colon
KM20L2 colon = system: KM20L2 colon
LOX IMVI melanoma = system: LOX IMVI melanoma
LXFL 529 NSCLC = system: LXFL 529 NSCLC
M14 melanoma = system: M14 melanoma
M19-MEL melanoma = system: M19-MEL melanoma
MALME-3M melanoma = system: MALME-3M melanoma
MOLT-4 leukemia = system: MOLT-4 leukemia
NCI-H23 lung = system: NCI-H23 lung
NCI-H460 lung = system: NCI-H460 lung
NCI-H522 lung = system: NCI-H522 lung
OVCAR-3 ovarian = system: OVCAR-3 ovarian
OVCAR-4 ovarian = system: OVCAR-4 ovarian
OVCAR-5 ovarian = system: OVCAR-5 ovarian
OVCAR-8 ovarian = system: OVCAR-8 ovarian
RPMI-8226 leukemia = system: RPMI-8226 leukemia
RXF 393 renal = system: RXF 393 renal
RXF-631 renal = system: RXF-631 renal
SF-268 CNS = system: SF-268 CNS
SF-295 CNS = system: SF-295 CNS
SK-MEL-2 melanoma = system: SK-MEL-2 melanoma
SK-MEL-28 melanoma = system: SK-MEL-28 melanoma
SK-MEL-5 melanoma = system: SK-MEL-5 melanoma
SK-OV-3 ovarian = system: SK-OV-3 ovarian
SN12C renal = system: SN12C renal
SNB-75 CNS = system: SNB-75 CNS
SNB-78 CNS = system: SNB-78 CNS
SW-620 colon = system: SW-620 colon
TK-10 renal = system: TK-10 renal
U251 CNS = system: U251 CNS
UACC-257 melanoma = system: UACC-257 melanoma
UACC-62 melanoma = system: UACC-62 melanoma
XF 498 CNS = system: XF 498 CNS

For `CC[O-].CC[O-].O=C([CH-]C(=O)c1ccccc1)CCCCCCCCC(=O)[CH-]C(=O)c1ccccc1.[Ti+4]`, the GI50 (786-0 renal) was > 100 µM, the TGI (786-0 renal) was > 100 µM and the GI50 (A498 renal) was > 100 µM. The TGI (A498 renal) was > 100 µM, the GI50 (A549 NSCLC) was > 100 µM and the TGI (A549 NSCLC) was > 100 µM. The GI50 (ACHN renal) was > 100 µM, the TGI (ACHN renal) was > 100 µM and the GI50 (CAKI-1 renal) was > 100 µM. The TGI (CAKI-1 renal) was > 100 µM, the GI50 (CCRF-CEM leukemia) was 41.8 µM and the TGI (CCRF-CEM leukemia) was > 100 µM. The GI50 (COLO 205 colon) was > 100 µM, the TGI (COLO 205 colon) was > 100 µM and the GI50 (DLD-1 colon) was > 100 µM. The TGI (DLD-1 colon) was > 100 µM, the GI50 (DMS 114 small cell lung) was 80.6 µM and the TGI (DMS 114 small cell lung) was > 100 µM. The GI50 (DMS 273 small cell lung) was > 100 µM, the TGI (DMS 273 small cell lung) was > 100 µM and the GI50 (EKVX NSCLC) was > 100 µM. For the same compound, the TGI (EKVX NSCLC) was > 100 µM, the GI50 (HCC-2998 colon) was > 100 µM and the TGI (HCC-2998 colon) was > 100 µM. The GI50 (HCT-15 colon) was > 100 µM, the TGI (HCT-15 colon) was > 100 µM and the GI50 (HL-60(TB) leukemia) was > 100 µM. The TGI (HL-60(TB) leukemia) was > 100 µM, the GI50 (HOP-62 NSCLC) was > 100 µM and the TGI (HOP-62 NSCLC) was > 100 µM. The GI50 (HOP-92 NSCLC) was 67.5 µM, the TGI (HOP-92 NSCLC) was > 100 µM and the GI50 (HT29 colon) was > 100 µM. The TGI (HT29 colon) was > 100 µM, the GI50 (IGROV1 ovarian) was > 100 µM and the TGI (IGROV1 ovarian) was > 100 µM. For the same compound, the GI50 (K-562 leukemia) was > 100 µM, the TGI (K-562 leukemia) was > 100 µM and the GI50 (KM12 colon) was 0.032 µM. The TGI (KM12 colon) was 3.25 µM, the GI50 (KM20L2 colon) was > 100 µM and the TGI (KM20L2 colon) was > 100 µM. The GI50 (LOX IMVI melanoma) was > 100 µM, the TGI (LOX IMVI melanoma) was > 100 µM and the GI50 (LXFL 529 NSCLC) was > 100 µM. The TGI (LXFL 529 NSCLC) was > 100 µM, the GI50 (M14 melanoma) was > 100 µM and the TGI (M14 melanoma) was > 100 µM. For the same compound, the GI50 (M19-MEL melanoma) was > 100 µM, the TGI (M19-MEL melanoma) was > 100 µM and the GI50 (MALME-3M melanoma) was 73.6 µM. For the same compound, the TGI (MALME-3M melanoma) was > 100 µM, the GI50 (MOLT-4 leukemia) was 53.9 µM and the TGI (MOLT-4 leukemia) was > 100 µM. For the same compound, the GI50 (NCI-H23 lung) was 92 µM, the TGI (NCI-H23 lung) was > 100 µM and the GI50 (NCI-H460 lung) was > 100 µM. For the same compound, the TGI (NCI-H460 lung) was > 100 µM, the GI50 (NCI-H522 lung) was > 100 µM and the TGI (NCI-H522 lung) was > 100 µM. For the same compound, the GI50 (OVCAR-3 ovarian) was 0.756 µM, the TGI (OVCAR-3 ovarian) was > 100 µM and the GI50 (OVCAR-4 ovarian) was 78.8 µM. The TGI (OVCAR-4 ovarian) was > 100 µM, the GI50 (OVCAR-5 ovarian) was > 100 µM and the TGI (OVCAR-5 ovarian) was > 100 µM. The GI50 (OVCAR-8 ovarian) was 52.1 µM, the TGI (OVCAR-8 ovarian) was > 100 µM and the GI50 (RPMI-8226 leukemia) was > 100 µM. The TGI (RPMI-8226 leukemia) was > 100 µM, the GI50 (RXF 393 renal) was 45 µM and the TGI (RXF 393 renal) was > 100 µM. For the same compound, the GI50 (RXF-631 renal) was > 100 µM, the TGI (RXF-631 renal) was > 100 µM and the GI50 (SF-268 CNS) was > 100 µM. The TGI (SF-268 CNS) was > 100 µM, the GI50 (SF-295 CNS) was 1.52 µM and the TGI (SF-295 CNS) was > 100 µM. The GI50 (SK-MEL-2 melanoma) was > 100 µM, the TGI (SK-MEL-2 melanoma) was > 100 µM and the GI50 (SK-MEL-28 melanoma) was > 100 µM. For the same compound, the TGI (SK-MEL-28 melanoma) was > 100 µM, the GI50 (SK-MEL-5 melanoma) was > 100 µM and the TGI (SK-MEL-5 melanoma) was > 100 µM. The GI50 (SK-OV-3 ovarian) was > 100 µM, the TGI (SK-OV-3 ovarian) was > 100 µM and the GI50 (SN12C renal) was > 100 µM. For the same compound, the TGI (SN12C renal) was > 100 µM, the GI50 (SNB-75 CNS) was > 100 µM and the TGI (SNB-75 CNS) was > 100 µM. For the same compound, the GI50 (SNB-78 CNS) was > 100 µM, the TGI (SNB-78 CNS) was > 100 µM and the GI50 (SW-620 colon) was > 100 µM. For the same compound, the TGI (SW-620 colon) was > 100 µM, the GI50 (TK-10 renal) was > 100 µM and the TGI (TK-10 renal) was > 100 µM. For the same compound, the GI50 (U251 CNS) was > 100 µM, the TGI (U251 CNS) was > 100 µM and the GI50 (UACC-257 melanoma) was > 100 µM. The TGI (UACC-257 melanoma) was > 100 µM, the GI50 (UACC-62 melanoma) was > 100 µM and the TGI (UACC-62 melanoma) was > 100 µM. The GI50 (XF 498 CNS) was > 100 µM and the TGI (XF 498 CNS) was > 100 µM.

Reference: PubChem BioAssay (NCI)
